# From US8466184B2, “Biocide” (Titan Chemicals Limited, priority 2011, dated 2013)
# Tests used:
# [1] = Measuring stability of water solutions (temperature at which the solution remained fluid after 24 hours and seeding); assay type: physicochemical; settings: after 24 hours and seeding with seed crystal
# Procedure: According to the invention there is therefore provided a composition consisting essentially of water and the tetramethylammonium salt of 1,2-benzisothiazolin-3-one having a freezing point of less than about 0° C., such as less than about −1° C. for example less than about −3° C., about −5° C., about −10° C., about −15° C., about −20° C., about −25° C. or −30° C. As used herein the expression “freezing point” means that the composition is fluid after 24 hours and seeded with solid tetramethylammonium salt of 1,2-benzisothiazolin-3-one.
# A series of solutions of tetramethylammonium BIT in distilled water were prepared. In series of experiments the temperature at which the solution remained fluid after 24 hours and seeding with a seed crystal of tetramethylammonium BIT was measured.
# [2] = 59 wt % tetramethylammonium BIT (40 wt % BIT) in water; after storage for 24 hours and seeding; cited from earlier work
compound,measurement,setting,value
"C[N+](C)(C)C.O=c1[n-]sc2ccccc12 [tetramethylammonium BIT, tetramethylammonium salt of 1,2-benzisothiazolin-3-one]",Temp at which the solution remained fluid,[1]; 20.3 % BIT concn in distilled water,−5 °C
same,Temp at which the solution remained fluid,[1]; 25.3 % BIT concn in distilled water,−8 °C
same,Temp at which the solution remained fluid,[1]; 30.4 % BIT concn in distilled water,−13 °C
same,Temp at which the solution remained fluid,[1]; 35.6 % BIT concn in distilled water,−20 °C
same,Temp at which the solution remained fluid,[1]; 39.3 % BIT concn in distilled water,−32 °C
same,Temp at which the solution remained fluid,[1]; 42.6 % BIT concn in distilled water,−10 °C
same,Temp at which the solution remained fluid,[1]; 45 % BIT concn in distilled water,5 °C
same,freezing point of lowest freezing point water solution,[2],3 °C
